Source: patent US7179898B1, “Human vanilloid receptor-like receptor” (Merck & Co., Inc., priority 1998, dated 2007)

Key:
[1] = molecular target: T1, human vanilloid receptor-like receptor (VR-L) (Homo sapiens, UniProt Q9Y5S1); assay: Xenopus oocyte expression, two-electrode voltage clamp at -70 mV; assay type: cell-based; settings: 1 μM capsaicin in the perfusate; Xenopus oocytes expressing human vr-l cDNA
T1 sequence (Q9Y5S1 1-764): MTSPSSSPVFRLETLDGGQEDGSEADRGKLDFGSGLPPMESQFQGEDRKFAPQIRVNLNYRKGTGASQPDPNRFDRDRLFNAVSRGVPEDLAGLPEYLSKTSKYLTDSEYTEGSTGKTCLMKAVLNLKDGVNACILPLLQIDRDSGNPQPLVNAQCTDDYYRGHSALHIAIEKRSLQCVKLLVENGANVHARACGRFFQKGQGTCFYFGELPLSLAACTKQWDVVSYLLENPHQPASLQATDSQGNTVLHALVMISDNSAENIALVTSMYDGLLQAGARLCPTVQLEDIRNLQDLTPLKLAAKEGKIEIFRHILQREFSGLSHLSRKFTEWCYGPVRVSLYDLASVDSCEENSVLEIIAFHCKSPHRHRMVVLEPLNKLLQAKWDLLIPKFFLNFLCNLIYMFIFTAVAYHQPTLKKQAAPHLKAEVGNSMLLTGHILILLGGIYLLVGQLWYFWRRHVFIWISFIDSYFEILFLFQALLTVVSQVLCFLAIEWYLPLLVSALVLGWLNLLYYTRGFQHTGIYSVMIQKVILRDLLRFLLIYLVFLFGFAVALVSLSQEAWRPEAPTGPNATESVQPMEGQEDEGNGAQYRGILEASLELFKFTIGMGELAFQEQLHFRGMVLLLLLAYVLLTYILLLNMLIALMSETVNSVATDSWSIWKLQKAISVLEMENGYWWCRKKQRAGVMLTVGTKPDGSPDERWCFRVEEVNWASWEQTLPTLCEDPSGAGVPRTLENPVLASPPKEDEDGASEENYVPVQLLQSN
Description: Adult female Xenopus laevis were anaesthetized by immersion in a 0.4% solution of 3-aminobenzoic acid ethylester for 30–45 mins (or until unresponsive). Ovary tissue was removed via a small abdominal incision and Stage V and VI oocytes were isolated with fine forceps. After mild collagenase treatment to remove follicle cells (Type 1A, 0.5 mg mL^−1, for 8 mins), the oocyte nuclei were directly injected with 10–20 nl of injection buffer (88 mM NaCl, 1 mM KCl, 15 mM HEPES, at pH 7, filtered through nitrocellulose) or sterile water containing vr-l cDNA engineered into the expression vector pcDNA3.1Zeo. Following incubation for 48 hrs, oocytes were placed in a 50 μL bath and perfused at 4–6 mL min^−1 with modified Barth's medium (MBS) consisting of 88 mM NaCl, 1 mM KCl, 10 mM HEPES, 0.82 mM MgSO4, 0.33 mM Ca(NO3)2, 0.91 mM CaCl2, 2.4 mM NaHCO3, at pH 7.5. Cells were impaled with two 1–3 MΩ electrodes containing 2 M KCl and voltage clamped between at −70 mV. Drugs were applied in the perfusate and heat was applied by bath applying preheated MBS.

[2] = molecular target: T1, human vanilloid receptor-like receptor (VR-L); assay: Whole-cell patch clamp of HEK 293 cells transiently transfected with vr-l cDNA; assay type: cell-based; parameters: identified as together containing the entire coding region of the VR-L gene; expressed in transfected cells; host or cells: HEK 293 cells, transient transfection; settings: 1 μM capsaicin by fast perfusion; HEK 293 cells expressing human vr-l cDNA, -60 mV
Source text: A glass coverslip containing a monolayer of human embryonic kidney (HEK) 293 cells transiently transfected with the vr-l cDNA was placed in a perspex chamber mounted on the stage of a Nikon Diaphot inverted phase-contrast microscope and continuously perfused with calcium-free artificial cerebrospinal fluid (aCSF, see below). Fire-polished patch pipettes were pulled on program 10 of a WZ, DMZ-Universal puller using conventional 120TF-10 electrode-glass. Pipette tip diameter was generally 1.5–2.5 μM, resistances were approximately 4MΩ. The intracellular pipette solution used is detailed below. High resistance (>10 GΩ) seals were formed by advancing the pipette onto the cell and exerting gentle suction to break through the membrane. The cells were voltage-clamped at −60 mV, using an Axon Axopatch 2 amplifier. Drugs or heated aCSF were applied to the cell under study by fast perfusion using a large internal diameter (50–100 μM) triple-barrel pipette assembly. Drug responses were obtained by rapidly positioning the perfusion pipette to completely envelop the cell in drug solution. This was achieved via a Biologic rapid solution changer which pivots the barrels into the desired position. Fast washout was obtained by re-positioning the washout barrel in line with the cell. [table] [table]

response (inward current) to application of drug [1]: No responses
response (inward current) to application of drug [2]: No responses
SMILES: COc1cc(CNC(=O)CCCC/C=C/C(C)C)ccc1O [capsaicin]
